Assay results: patent publication US12558349B2, “Methods of treating infections in overweight and obese patients using antibiotics” (MELINTA SUBSIDIARY CORP., priority 2013, dated 2026)
Like-named read-outs stand apart in the source and are kept apart here.

Legend:
[1] = test system: Confirmed MRSA; experiment: Phase 2b clinical trial: Investigators' Global Assessment of Cure in Patients with Confirmed MRSA; format: in vivo, human; conditions: comparators with and without aztreonam; for Response Rate, Investigators' Global Assessment of Cure in Patients with Confirmed MRSA: MITT; for Percent Clinical Cure (MITT): patients with confirmed MRSA
Description: (§1) The term “cure” or “Investigators' Global Assessment of Cure” as used herein refers to complete resolution of all signs and symptoms at the follow-up visit.

[2] = test system: Acute Bacterial Skin and Skin Structure Infections (ABSSSI); experiment: Phase 2b clinical trial: reduction in the size of the lesion at 48 to 72 hours; format: in vivo, human
[3] = test system: Acute Bacterial Skin and Skin Structure Infections (ABSSSI); experiment: Phase 2b clinical trial in ABSSSI: Investigators' Global Assessment of Cure; format: in vivo, human; conditions: for Response Rate, Investigators' Global Assessment of Cure: ITT; for Response Rate, Investigators' Global Assessment of Cure / Percent Clinical Cure (ITT): delafloxacin 300 mg BID, Zyvox 600 mg BID, vancomycin 1,000 to 2,000 mg BID, comparators with and without aztreonam; for Percent Clinical Cure (ITT): Investigators' Global Assessment of Cure; for Clinical activity with increased patient weight: Phase 2b data by weight/BMI
Description: as §1

[4] = test system: Acute Bacterial Skin and Skin Structure Infections (ABSSSI); experiment: Phase 2b clinical trial: Objective Endpoint at 48 to 72 hours (cessation of lesion spread and absence or resolution of fever); format: in vivo, human; conditions: comparators with and without aztreonam; for Percent Cessation of Spread of Erythema and Absence of Fever at 48 to 72 Hours: secondary endpoint
[5] = Phase 2b clinical trial: adverse events; conditions: for Overall adverse event rates: across the Phase 2b study; for Specific limiting toxicity: human, in vivo
[6] = human, in vivo

Nc1nc(-n2cc(C(=O)O)c(=O)c3cc(F)c(N4CC(O)C4)c(Cl)c32)c(F)cc1F [Delafloxacin, 1-(6-amino-3,5-difluoro-2-pyridinyl)-8-chloro-6-fluoro-1,4-dihydro-7-(3-hydroxy-1-azetidinyl)-4-oxo-3-quinolinecarboxylic acid]
Response Rate, Investigators' Global Assessment of Cure in Patients with Confirmed MRSA [1]: 19/29
Percent Clinical Cure (MITT) [1]: 65.56%
Percentage of patients with a 30% or greater reduction in the size of the lesion, versus comparators [2]: greater percentage of patients
Efficacy compared to vancomycin, primary endpoint Investigators' Global Assessment of Cure ([3]; 95% Confidence Interval −30.3%, −2.3%, p=0.031): statistically significant efficacy advantage
Response Rate, Investigators' Global Assessment of Cure [3]: 57/81
Percent Clinical Cure (ITT) [3]: 70.4%
Clinical activity with increased patient weight [3]: maintained
Response Rate, Objective Endpoint at 48 to 72 hours [4]: 61/78
Percent Cessation of Spread of Erythema and Absence of Fever at 48 to 72 Hours [4]: 78.2%
Percent Cessation of Spread of Erythema and Absence of Fever at 48 to 72 Hours ([4]; listed as delafloxacin): approximately 78%
Evidence for toxicities common in the fluoroquinolone class (phototoxicity, elevated liver enzymes, dysglycemia, QT prolongation) ([5]; Phase 2b study): did not demonstrate evidence
Leading adverse event ([5]; Phase 2b study): gastrointestinal, or GI, disorder
Most common specific adverse event ([5]; Phase 2b study): mild to moderate diarrhea
Overall adverse event rates [5]: 74%
Specific limiting toxicity [5]: no specific limiting toxicity

CC(=O)NC[C@H]1CN(c2ccc(N3CCOCC3)c(F)c2)C(=O)O1 [Zyvox, N-[[(5S)-3-[3-fluoro-4-(4-morpholinyl)phenyl]-2-oxo-5-oxazolidinyl]methyl]acetamide]
Response Rate, Investigators' Global Assessment of Cure in Patients with Confirmed MRSA [1]: 21/34
Percent Clinical Cure (MITT) [1]: 61.8%
Response Rate, Investigators' Global Assessment of Cure [3]: 50/77
Percent Clinical Cure (ITT) [3]: 84.9%
Clinical activity with increased patient weight [3]: decline
Response Rate, Objective Endpoint at 48 to 72 hours [4]: 56/75
Percent Cessation of Spread of Erythema and Absence of Fever at 48 to 72 Hours [4]: 74.7%
Percent Cessation of Spread of Erythema and Absence of Fever at 48 to 72 Hours ([4]; listed as linezolid): ~75%
Leading adverse event ([5]; Phase 2b study): GI disorder
Most common specific adverse event ([5]; Phase 2b study): nausea
Subjects who experienced thrombocytopenia ([5]; Phase 2b study arm): two
Overall adverse event rates [5]: 72%
Specific limiting toxicity [5]: bone marrow

CN[C@H](CC(C)C)C(=O)N[C@H]1C(=O)N[C@@H](CC(N)=O)C(=O)N[C@H]2C(=O)N[C@H]3C(=O)N[C@H](C(=O)N[C@H](C(=O)O)c4cc(O)cc(O)c4-c4cc3ccc4O)[C@H](O)c3ccc(c(Cl)c3)Oc3cc2cc(c3O[C@@H]2O[C@H](CO)[C@@H](O)[C@H](O)[C@H]2O[C@H]2C[C@](C)(N)[C@H](O)[C@H](C)O2)Oc2ccc(cc2Cl)[C@H]1O [Vancomycin]
Response Rate, Investigators' Global Assessment of Cure in Patients with Confirmed MRSA [1]: 21/32
Percent Clinical Cure (MITT) [1]: 65.6%
Specific limiting toxicity [6]: kidney
Response Rate, Investigators' Global Assessment of Cure [3]: 53/98
Percent Clinical Cure (ITT) [3]: 54.1%
Clinical activity with increased patient weight [3]: decline
Response Rate, Objective Endpoint at 48 to 72 hours [4]: 69/95
Percent Cessation of Spread of Erythema and Absence of Fever at 48 to 72 Hours [4]: 72.6%
Percent Cessation of Spread of Erythema and Absence of Fever at 48 to 72 Hours ([4]; listed as vancomycin): ~73%
Leading adverse event ([5]; Phase 2b study): disorders of the skin
Most common specific adverse event ([5]; Phase 2b study): pruritus
Patients who experienced renal issues ([5]; Phase 2b study arm): three
Renal failures ([5]; Phase 2b study arm, among the renal issues): two
Overall adverse event rates [5]: 65%
